The structures appear in SMILES notation. The source made the active and inactive calls. The calls are words filed in the database; no cut-off is given here. Peptide text beside a SMILES is read from it.

The values that follow come from ChEMBL document CHEMBL5338820, “Discovery and Design of Novel Cyclic Peptides as Specific Inhibitors Targeting CCN2 and Disrupting CCN2/EGFR Interaction for Kidney Fibrosis Treatment” (J Med Chem, 2023).

Experiment [1] addresses T1, CCN2-EGFR (Homo sapiens) (UniProt P00533+P29279). Nature of the experiment: Inhibition of His-tagged full length human CCN2 FL domain/human Fc-tagged EGFR protein-protein interaction using TMB as chromogenic substrate at 100 uM incubated for 140 mins by microplate reader assay relative to control.
The target of experiment [2] is T1, CCN2-EGFR (Homo sapiens). Nature of the experiment: Inhibition of His-tagged full length human CCN2 CT domain/human Fc-tagged EGFR protein-protein interaction using TMB as chromogenic substrate at 100 uM incubated for 140 mins by microplate reader assay relative to control.
Experiment [3] deals with T2, CCN family member 2 (Homo sapiens) (UniProt P29279).
T2 sequence (whole entry): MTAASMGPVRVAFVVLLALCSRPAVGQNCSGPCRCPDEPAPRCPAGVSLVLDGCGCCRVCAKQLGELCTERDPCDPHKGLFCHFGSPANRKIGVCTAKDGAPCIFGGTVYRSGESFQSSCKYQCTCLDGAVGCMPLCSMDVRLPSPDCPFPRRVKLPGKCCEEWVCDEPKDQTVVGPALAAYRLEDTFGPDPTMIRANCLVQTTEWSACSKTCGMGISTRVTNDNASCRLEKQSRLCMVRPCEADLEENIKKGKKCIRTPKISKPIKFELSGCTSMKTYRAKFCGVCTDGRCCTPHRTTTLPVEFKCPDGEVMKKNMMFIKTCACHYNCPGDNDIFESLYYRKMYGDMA
Nature of the experiment: Inhibition of recombinant human CCN2 CT domain expressed in human […] cells assessed as reduction in fibronectin synthesis at 100 uM incubated for 24 hrs by Western blotting assay. It counts as cell-based. For orientation: In western blotting, separated proteins are transferred to a membrane and probed.

In experiment [4] the target is T2, CCN family member 2 (Homo sapiens). Description: Inhibition of recombinant human CCN2 CT domain expressed in human […] cells assessed as reduction in COL1A1 synthesis at 100 uM incubated for 24 hrs by Western blotting assay. In kind it is cell-based.

T1 sequence (P00533 whole entry, looked up, one chain of several, the tested form may be a part): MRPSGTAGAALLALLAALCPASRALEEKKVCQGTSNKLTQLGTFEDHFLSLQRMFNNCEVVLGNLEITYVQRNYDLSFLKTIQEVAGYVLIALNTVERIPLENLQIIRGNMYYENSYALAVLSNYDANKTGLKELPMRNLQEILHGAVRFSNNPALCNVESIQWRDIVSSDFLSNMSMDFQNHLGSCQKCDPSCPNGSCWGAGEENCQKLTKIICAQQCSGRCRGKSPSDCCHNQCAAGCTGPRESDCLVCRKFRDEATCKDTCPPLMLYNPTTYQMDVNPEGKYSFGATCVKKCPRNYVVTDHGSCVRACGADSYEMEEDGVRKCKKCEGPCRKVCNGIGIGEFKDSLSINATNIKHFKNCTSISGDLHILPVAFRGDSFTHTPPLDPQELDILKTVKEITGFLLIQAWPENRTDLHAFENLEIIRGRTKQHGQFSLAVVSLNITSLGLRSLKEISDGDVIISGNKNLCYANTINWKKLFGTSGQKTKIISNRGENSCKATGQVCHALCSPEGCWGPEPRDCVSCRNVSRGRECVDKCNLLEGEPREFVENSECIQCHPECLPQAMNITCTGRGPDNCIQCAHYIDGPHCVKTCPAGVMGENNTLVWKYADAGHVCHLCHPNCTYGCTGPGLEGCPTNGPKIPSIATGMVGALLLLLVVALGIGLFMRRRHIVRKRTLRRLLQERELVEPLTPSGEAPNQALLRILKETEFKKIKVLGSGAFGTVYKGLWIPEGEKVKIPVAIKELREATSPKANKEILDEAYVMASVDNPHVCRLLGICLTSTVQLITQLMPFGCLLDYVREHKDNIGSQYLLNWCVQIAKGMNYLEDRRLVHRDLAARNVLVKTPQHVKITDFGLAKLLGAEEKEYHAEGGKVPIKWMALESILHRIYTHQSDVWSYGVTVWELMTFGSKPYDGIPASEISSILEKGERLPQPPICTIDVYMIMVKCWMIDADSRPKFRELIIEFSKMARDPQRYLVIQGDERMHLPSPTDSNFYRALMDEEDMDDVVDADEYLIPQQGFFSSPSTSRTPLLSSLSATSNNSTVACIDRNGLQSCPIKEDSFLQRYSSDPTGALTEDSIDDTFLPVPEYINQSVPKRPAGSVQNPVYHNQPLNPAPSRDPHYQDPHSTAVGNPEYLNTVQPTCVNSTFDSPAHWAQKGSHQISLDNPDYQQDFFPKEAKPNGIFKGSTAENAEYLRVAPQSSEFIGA

As usually defined, the inhibition is the share of the control response that was lost under treatment. Regarding `C[C@@H](O)[C@H](N)C(=O)N[C@@H](Cc1c[nH]cn1)C(=O)N[C@@H](Cc1c[nH]cn1)C(=O)N[C@@H](CCCNC(=N)N)C(=O)N[C@@H](CCCCN)C(=O)N[C@@H](Cc1c[nH]c2ccccc12)C(=O)N[C@H](C(N)=O)[C@@H](C)O` (H-THHRKWT-NH2), the figures for the inhibition at CCN2-EGFR (Homo sapiens) [1] and on CCN2-EGFR (Homo sapiens) [2] were 15% and 11%, respectively. Moreover, the inhibition result in experiment [3] and in experiment [4] was “inactive” each time.
On to `C[C@@H](O)[C@H](NC(=O)[C@H](Cc1c[nH]c2ccccc12)NC(=O)[C@@H]1CCCN1C(=O)[C@H](CCCNC(=N)N)NC(=O)[C@H](Cc1c[nH]cn1)NC(=O)[C@@H](N)Cc1c[nH]cn1)C(N)=O` (H-HHRPWT-NH2), for which the figures for the inhibition on CCN2-EGFR (Homo sapiens) [1] and against CCN2-EGFR (Homo sapiens) [2] were 16% and 9.4%, respectively. The inhibition entry in experiment [3] and in experiment [4] was “inactive” each time.
For the compound `C[C@@H](O)[C@H](N)C(=O)N[C@@H](Cc1c[nH]cn1)C(=O)N[C@@H](Cc1c[nH]cn1)C(=O)N[C@@H](CCC(=O)O)C(=O)N1CCC[C@H]1C(=O)N[C@@H](Cc1c[nH]c2ccccc12)C(=O)N[C@H](C(N)=O)[C@@H](C)O` (H-THHEPWT-NH2), the inhibition on CCN2-EGFR (Homo sapiens) [1] is 12.4%; against CCN2-EGFR (Homo sapiens) [2], 61.9%.
On to `C[C@H](N)C(=O)N[C@@H](CC(=O)O)C(=O)N[C@H](C(=O)N[C@H](C(=O)N[C@@H](Cc1c[nH]cn1)C(=O)N[C@@H](Cc1c[nH]cn1)C(=O)N[C@@H](CCCNC(=N)N)C(=O)N1CCC[C@H]1C(=O)N[C@@H](Cc1c[nH]c2ccccc12)C(=O)N[C@H](C(N)=O)[C@@H](C)O)[C@@H](C)O)[C@@H](C)O` (H-ADTTHHRPWT-NH2), for which the inhibition against CCN2-EGFR (Homo sapiens) [1] came out at 70.6%; against CCN2-EGFR (Homo sapiens) [2], 61.9%. In addition, the inhibition entry in experiment [3] and in experiment [4] was “Active” in each case.
`CC(C)C[C@H](NC(=O)[C@@H](N)CC(C)C)C(=O)N[C@@H](C)C(=O)N[C@@H](CC(=O)O)C(=O)N[C@H](C(=O)N[C@H](C(=O)N[C@@H](Cc1c[nH]cn1)C(=O)N[C@@H](C)C(=O)N[C@@H](CCCNC(=N)N)C(=O)N1CCC[C@H]1C(=O)N[C@@H](Cc1c[nH]c2ccccc12)C(=O)N[C@H](C(N)=O)[C@@H](C)O)[C@@H](C)O)[C@@H](C)O` (H-LLADTTHARPWT-NH2): the inhibition at CCN2-EGFR (Homo sapiens) [1] worked out at 48.6%; at CCN2-EGFR (Homo sapiens) [2], 65.8%.
For the compound `CC(C)C[C@H](NC(=O)[C@@H](N)CC(C)C)C(=O)N[C@@H](C)C(=O)N[C@@H](CC(=O)O)C(=O)N[C@H](C(=O)N[C@H](C(=O)N[C@@H](Cc1c[nH]cn1)C(=O)N[C@@H](Cc1c[nH]cn1)C(=O)N[C@@H](CCCNC(=N)N)C(=O)N1CCC[C@H]1C(=O)N[C@@H](C)C(=O)N[C@H](C(N)=O)[C@@H](C)O)[C@@H](C)O)[C@@H](C)O` (H-LLADTTHHRPAT-NH2), the inhibition on CCN2-EGFR (Homo sapiens) [1] was 8.7%; against CCN2-EGFR (Homo sapiens) [2] it was 10.7%.
The like results for `C[C@@H](O)[C@@H]1NC(=O)[C@H](Cc2c[nH]c3ccccc23)NC(=O)[C@@H]2CCCN2C(=O)[C@H](CCCNC(=N)N)NC(=O)[C@H](CCCCN)NC(=O)[C@H](Cc2c[nH]cn2)NC(=O)[C@H]([C@@H](C)O)NC1=O` (cyclo(HKRPWTT)) were, in that order, 17.4% and 13.2%.
Take `C[C@@H](O)[C@H](N)C(=O)N[C@@H](Cc1c[nH]cn1)C(=O)N[C@@H](Cc1c[nH]cn1)C(=O)N[C@@H](CCCNC(=N)N)C(=O)N1CCC[C@H]1C(=O)N[C@@H](Cc1c[nH]c2ccccc12)C(=O)N[C@H](C(N)=O)[C@@H](C)O` (H-THHRPWT-NH2): the inhibition is 66.6% against CCN2-EGFR (Homo sapiens) [1] and 62% against CCN2-EGFR (Homo sapiens) [2]. For the same compound, the inhibition result in experiment [3] and in experiment [4] was “Active” throughout.
Regarding `C[C@@H](O)[C@H](N)C(=O)N[C@@H](Cc1c[nH]cn1)C(=O)N[C@@H](CCC(=O)O)C(=O)N[C@@H](CCCNC(=N)N)C(=O)N1CCC[C@H]1C(=O)N[C@@H](Cc1c[nH]c2ccccc12)C(=O)N[C@H](C(N)=O)[C@@H](C)O` (H-THERPWT-NH2), the inhibition at CCN2-EGFR (Homo sapiens) [1] is 15.5%; at CCN2-EGFR (Homo sapiens) [2], 12.1%.
Take `C[C@@H](O)[C@H](N)C(=O)N[C@@H](Cc1c[nH]cn1)C(=O)N[C@@H](CCCCN)C(=O)N[C@@H](CCCNC(=N)N)C(=O)N1CCC[C@H]1C(=O)N[C@@H](Cc1c[nH]c2ccccc12)C(=O)N[C@H](C(N)=O)[C@@H](C)O` (H-THKRPWT-NH2): the inhibition worked out at 59.7% on CCN2-EGFR (Homo sapiens) [1] and 63.4% against CCN2-EGFR (Homo sapiens) [2]. Also, the inhibition entry in experiment [3] and in experiment [4] was “Active” in each case.
With `CC(C)C[C@H](NC(=O)[C@H](C)N)C(=O)N[C@@H](C)C(=O)N[C@@H](CC(=O)O)C(=O)N[C@H](C(=O)N[C@H](C(=O)N[C@@H](Cc1c[nH]cn1)C(=O)N[C@@H](Cc1c[nH]cn1)C(=O)N[C@@H](CCCNC(=N)N)C(=O)N1CCC[C@H]1C(=O)N[C@@H](Cc1c[nH]c2ccccc12)C(=O)N[C@H](C(N)=O)[C@@H](C)O)[C@@H](C)O)[C@@H](C)O` (H-ALADTTHHRPWT-NH2), the results for the inhibition against CCN2-EGFR (Homo sapiens) [1] and at CCN2-EGFR (Homo sapiens) [2] were 58.7% and 70.8%, respectively.
For `CC(C)C[C@H](NC(=O)[C@H](CCCNC(=N)N)NC(=O)[C@H](Cc1c[nH]cn1)NC(=O)[C@H](Cc1c[nH]cn1)NC(=O)[C@@H](N)[C@@H](C)O)C(=O)N[C@@H](Cc1c[nH]c2ccccc12)C(=O)N[C@H](C(N)=O)[C@@H](C)O` (H-THHRLWT-NH2), in that order: 37.1% and 43.6%.
On to `CC(C)C[C@H](N)C(=O)N[C@@H](C)C(=O)N[C@@H](CC(=O)O)C(=O)N[C@H](C(=O)N[C@H](C(=O)N[C@@H](Cc1c[nH]cn1)C(=O)N[C@@H](Cc1c[nH]cn1)C(=O)N[C@@H](CCCNC(=N)N)C(=O)N1CCC[C@H]1C(=O)N[C@@H](Cc1c[nH]c2ccccc12)C(=O)N[C@H](C(N)=O)[C@@H](C)O)[C@@H](C)O)[C@@H](C)O` (H-LADTTHHRPWT-NH2), for which the inhibition against CCN2-EGFR (Homo sapiens) [1] is 68.8%; against CCN2-EGFR (Homo sapiens) [2], 67.4%. Also, the inhibition entry in experiment [3] and in experiment [4] was “Active” in each case.
`C[C@@H](O)[C@H](N)C(=O)N[C@@H](Cc1c[nH]cn1)C(=O)N[C@@H](Cc1c[nH]cn1)C(=O)N[C@@H](CCCCN)C(=O)N1CCC[C@H]1C(=O)N[C@@H](Cc1c[nH]c2ccccc12)C(=O)N[C@H](C(N)=O)[C@@H](C)O` (H-THHKPWT-NH2): the inhibition at CCN2-EGFR (Homo sapiens) [1] is 14.4%; against CCN2-EGFR (Homo sapiens) [2], 65.8%. In addition, the inhibition result in experiment [3] and in experiment [4] was “inactive” throughout.
For the compound `CC(C)C[C@H](NC(=O)[C@@H](N)CC(C)C)C(=O)N[C@@H](C)C(=O)N[C@@H](CC(=O)O)C(=O)N[C@H](C(=O)N[C@H](C(=O)N[C@@H](C)C(=O)N[C@@H](Cc1c[nH]cn1)C(=O)N[C@@H](CCCNC(=N)N)C(=O)N1CCC[C@H]1C(=O)N[C@@H](Cc1c[nH]c2ccccc12)C(=O)N[C@H](C(N)=O)[C@@H](C)O)[C@@H](C)O)[C@@H](C)O` (H-LLADTTAHRPWT-NH2), the values for the inhibition against CCN2-EGFR (Homo sapiens) [1] and on CCN2-EGFR (Homo sapiens) [2] were 59.6% and 70.5%, respectively.
As to `C[C@@H](O)[C@H](N)C(=O)N[C@H](C(=O)N[C@@H](Cc1c[nH]cn1)C(=O)N[C@@H](Cc1c[nH]cn1)C(=O)N[C@@H](CCCNC(=N)N)C(=O)N1CCC[C@H]1C(=O)N[C@@H](Cc1c[nH]c2ccccc12)C(=O)N[C@H](C(N)=O)[C@@H](C)O)[C@@H](C)O` (H-TTHHRPWT-NH2), the inhibition on CCN2-EGFR (Homo sapiens) [1] worked out at 68.1%; against CCN2-EGFR (Homo sapiens) [2] it was 60%. The inhibition entry in experiment [3] and in experiment [4] was “Active” in each case.
In the case of `C[C@@H](O)[C@H](N)C(=O)N[C@@H](Cc1c[nH]cn1)C(=O)N[C@@H](Cc1c[nH]cn1)C(=O)N[C@@H](CCCNC(=N)N)C(=O)N[C@@H](CCC(=O)O)C(=O)N[C@@H](Cc1c[nH]c2ccccc12)C(=O)N[C@H](C(N)=O)[C@@H](C)O` (H-THHREWT-NH2), the results for the inhibition against CCN2-EGFR (Homo sapiens) [1] and against CCN2-EGFR (Homo sapiens) [2] were 19.6% and 11.1%, respectively.
For `C[C@@H](O)[C@H](N)C(=O)N[C@@H](Cc1c[nH]cn1)C(=O)N[C@@H](Cc1c[nH]cn1)C(=O)N[C@@H](CCCNC(=N)N)C(=O)N[C@@H](CCC(N)=O)C(=O)N[C@@H](Cc1c[nH]c2ccccc12)C(=O)N[C@H](C(N)=O)[C@@H](C)O` (H-THHRQWT-NH2), in that order: 4.5% and 1.2%.
`CC(C)C[C@H](N)C(=O)N[C@@H](C)C(=O)N[C@@H](C)C(=O)N[C@@H](CC(=O)O)C(=O)N[C@H](C(=O)N[C@H](C(=O)N[C@@H](Cc1c[nH]cn1)C(=O)N[C@@H](Cc1c[nH]cn1)C(=O)N[C@@H](CCCNC(=N)N)C(=O)N1CCC[C@H]1C(=O)N[C@@H](Cc1c[nH]c2ccccc12)C(=O)N[C@H](C(N)=O)[C@@H](C)O)[C@@H](C)O)[C@@H](C)O` (H-LAADTTHHRPWT-NH2): the inhibition was determined as 62.8% against CCN2-EGFR (Homo sapiens) [1] and 69.5% against CCN2-EGFR (Homo sapiens) [2].
The like results for `CC(C)C[C@H](NC(=O)[C@@H](N)CC(C)C)C(=O)N[C@@H](C)C(=O)N[C@@H](CC(=O)O)C(=O)N[C@@H](C)C(=O)N[C@H](C(=O)N[C@@H](Cc1c[nH]cn1)C(=O)N[C@@H](Cc1c[nH]cn1)C(=O)N[C@@H](CCCNC(=N)N)C(=O)N1CCC[C@H]1C(=O)N[C@@H](Cc1c[nH]c2ccccc12)C(=O)N[C@H](C(N)=O)[C@@H](C)O)[C@@H](C)O` (H-LLADATHHRPWT-NH2) were, in that order, 59% and 70.7%.
